Test results reported in PubChem BioAssay (NCI).
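96-well plates; 48 h exposure; 5 concentrations. Endpoints by linear interpolation between flanking doses. Not reached: highest tested concentration assigned. TGI: concentration producing complete growth inhibition.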

Tests used:
Experiment in all cases: inhibition of tumour cell growth, NCI panel, 48 h
A498 renal = tested on: A498 renal
COLO 205 colon = tested on: COLO 205 colon
DU-145 prostate = tested on: DU-145 prostate
HCC-2998 colon = tested on: HCC-2998 colon
HOP-62 NSCLC = tested on: HOP-62 NSCLC
NCI-H460 lung = tested on: NCI-H460 lung
OVCAR-5 ovarian = tested on: OVCAR-5 ovarian
SF-295 CNS = tested on: SF-295 CNS
SNB-19 CNS = tested on: SNB-19 CNS
SNB-75 CNS = tested on: SNB-75 CNS
TK-10 renal = tested on: TK-10 renal
UACC-62 melanoma = tested on: UACC-62 melanoma

Compound	TGI (A498 renal) [µM]	TGI (COLO 205 colon) [µM]	TGI (DU-145 prostate) [µM]	TGI (HCC-2998 colon) [µM]	TGI (HOP-62 NSCLC) [µM]	TGI (NCI-H460 lung) [µM]	TGI (OVCAR-5 ovarian) [µM]	TGI (SF-295 CNS) [µM]	TGI (SNB-19 CNS) [µM]	TGI (SNB-75 CNS) [µM]	TGI (TK-10 renal) [µM]	TGI (UACC-62 melanoma) [µM]
Cc1csc2c(P(=O)(OC(C)C)OC(C)C)c(-c3ccccc3)cn12	34.1	37.8	32.9	28.5	33.1	30.1	28.8	31.1	28.4	27.7	23.7	20
O=C1CCc2c3c(c4c([nH]c5ccccc54)c2CC1)C(=O)NC3=O	13.5	> 100	42.9	> 100	> 100	44.9	> 100	33.5	44.4	0.61	39.6	42.8
CCN(CC)CCn1ncc2ccc3c(c(=O)c4cccnc4n3CCN(CC)CC)c21	2.24	1.46	> 8.66	2.14	3.38	2.45	> 7.07	> 9.52	9.97	2.81	> 10	5.15
O=C1C=C2S[C@H]3C[C@]2(C=C1Br)c1c(c(O)c2c4c1=NCCC=4C=N2)N3	13.3	0.21	4.09	4.98	–	11.6	3.25	2.83	25.7	2.92	2.71	1.23
O=C(N=Nc1ccc([N+](=O)[O-])cc1)NNc1ccc([N+](=O)[O-])cc1	26.6	–	18.4	27.3	34	47.2	48	–	> 100	79.9	53.6	22.2
NNC(N)=Nc1cccc2ccccc12	> 100	> 100	> 100	> 100	> 100	> 100	> 100	> 100	> 100	> 100	> 100	> 100
O=C(CC(=O)c1ccncc1)c1ccccc1	> 100	> 100	> 100	> 100	> 100	> 100	> 100	> 100	> 100	> 100	> 100	> 100
COC(=O)N1CC[C@@H]2CCC=C(c3cccc4c3OCO4)[C@@H]21	> 100	> 100	> 100	> 100	> 100	> 100	> 100	> 100	> 100	62	> 100	> 100
CCOC(=O)C(Cc1ccc2c(c1)CCC2)(Cc1ccc2c(c1)CCC2)C(=O)OCC	> 100	–	> 100	> 100	> 100	> 100	> 100	> 100	> 100	> 100	> 100	–
COc1ccc(C2CCc3nc4nc(N)nc(N)c4cc3C2)cc1 (stereo not given)	77.1	> 100	> 100	> 100	33.9	> 100	> 100	89.6	31.8	5.09	24.9	> 100
CCOC(=O)C(SCCO)C(C(=O)OCC)n1ccc(N)nc1=O (stereo not given)	> 100	> 100	> 100	> 100	> 100	> 100	> 100	> 100	> 100	> 100	> 100	> 100
CCCCCCCCCc1cc(O)c(O)cc1CCCCCCCCC	> 10	> 10	> 10	> 10	> 10	> 10	> 10	> 10	> 10	> 10	> 10	> 10
COc1cc2c(cc1C)NC(=O)/C2=C/c1c(Cl)[nH]c2cc(C)c(OC)cc12	23.1	12.7	14.8	11	23.2	5.71	25.8	6.18	20.4	11.8	18	19.5
Nn1c(CNc2ccc(-c3nnc(Nc4ccc(Cl)cc4)n3N)cc2)nnc1Nc1ccc(Cl)cc1	> 100	> 100	> 100	> 100	93	> 100	> 100	> 100	> 100	> 100	> 100	> 100
CC1=CC(c2ccccc2)OP1(=O)c1ccccc1 (stereo not given)	> 100	> 100	> 100	> 100	> 100	> 100	> 100	> 100	> 100	> 100	> 100	> 100
